Measured values taken from ChEMBL document CHEMBL4507268 (2021).

What was measured:
Settings in all cases: Compound concentration 1000.0 nM
[1] = biological target: T1, Calcium/calmodulin-dependent protein kinase type IV (Homo sapiens) (UniProt Q16566)
T1 sequence (whole entry): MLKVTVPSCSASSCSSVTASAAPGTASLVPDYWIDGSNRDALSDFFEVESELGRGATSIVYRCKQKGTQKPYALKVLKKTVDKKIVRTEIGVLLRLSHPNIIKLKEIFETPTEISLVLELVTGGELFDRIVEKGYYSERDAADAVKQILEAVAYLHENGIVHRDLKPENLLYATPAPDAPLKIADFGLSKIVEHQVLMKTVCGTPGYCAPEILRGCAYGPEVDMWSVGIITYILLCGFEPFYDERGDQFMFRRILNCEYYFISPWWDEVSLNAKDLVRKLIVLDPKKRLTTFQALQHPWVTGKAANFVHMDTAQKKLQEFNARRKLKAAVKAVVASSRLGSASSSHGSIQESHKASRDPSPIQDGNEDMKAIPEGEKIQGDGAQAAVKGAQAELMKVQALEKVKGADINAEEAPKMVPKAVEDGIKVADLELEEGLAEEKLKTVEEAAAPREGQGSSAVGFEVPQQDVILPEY

[2] = biological target: Serine/threonine-protein kinase/endoribonuclease IRE1 (Homo sapiens) (UniProt O75460)
[3] = biological target: Serine/threonine-protein kinase MRCK gamma (Homo sapiens) (UniProt Q6DT37)
[4] = biological target: T2, Serine/threonine-protein kinase PLK4 (Homo sapiens) (UniProt O00444)
T2 sequence (whole entry): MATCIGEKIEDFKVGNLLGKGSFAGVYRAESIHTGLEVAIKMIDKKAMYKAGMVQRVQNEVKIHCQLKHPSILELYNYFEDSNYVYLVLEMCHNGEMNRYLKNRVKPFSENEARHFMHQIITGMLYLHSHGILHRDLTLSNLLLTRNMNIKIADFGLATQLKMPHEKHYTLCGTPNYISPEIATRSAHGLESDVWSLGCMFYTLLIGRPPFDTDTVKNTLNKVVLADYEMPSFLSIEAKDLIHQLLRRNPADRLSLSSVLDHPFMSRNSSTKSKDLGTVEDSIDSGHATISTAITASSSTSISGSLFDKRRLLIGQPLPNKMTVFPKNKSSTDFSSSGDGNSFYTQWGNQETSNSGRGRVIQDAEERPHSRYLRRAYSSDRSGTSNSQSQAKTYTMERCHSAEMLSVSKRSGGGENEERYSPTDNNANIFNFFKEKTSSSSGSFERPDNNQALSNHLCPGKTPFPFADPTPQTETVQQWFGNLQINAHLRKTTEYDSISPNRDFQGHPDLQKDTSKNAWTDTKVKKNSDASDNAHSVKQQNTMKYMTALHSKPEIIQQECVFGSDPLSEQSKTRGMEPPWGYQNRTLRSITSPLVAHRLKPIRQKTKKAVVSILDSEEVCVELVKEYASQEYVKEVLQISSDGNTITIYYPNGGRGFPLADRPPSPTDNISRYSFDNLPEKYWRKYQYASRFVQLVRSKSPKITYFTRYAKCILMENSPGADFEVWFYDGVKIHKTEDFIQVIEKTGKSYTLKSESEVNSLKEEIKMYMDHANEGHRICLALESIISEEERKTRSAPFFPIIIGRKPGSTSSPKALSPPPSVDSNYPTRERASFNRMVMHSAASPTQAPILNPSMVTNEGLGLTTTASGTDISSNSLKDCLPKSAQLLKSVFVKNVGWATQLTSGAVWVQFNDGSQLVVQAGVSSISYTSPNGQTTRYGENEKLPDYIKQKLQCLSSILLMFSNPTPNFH

[5] = biological target: High affinity nerve growth factor receptor (Homo sapiens) (UniProt P04629)
[6] = biological target: Ribosomal protein S6 kinase beta-1 (Homo sapiens) (UniProt P23443)
[7] = biological target: T3, Serine/threonine-protein kinase TAO1 (Homo sapiens) (UniProt Q7L7X3)
T3 sequence (whole entry): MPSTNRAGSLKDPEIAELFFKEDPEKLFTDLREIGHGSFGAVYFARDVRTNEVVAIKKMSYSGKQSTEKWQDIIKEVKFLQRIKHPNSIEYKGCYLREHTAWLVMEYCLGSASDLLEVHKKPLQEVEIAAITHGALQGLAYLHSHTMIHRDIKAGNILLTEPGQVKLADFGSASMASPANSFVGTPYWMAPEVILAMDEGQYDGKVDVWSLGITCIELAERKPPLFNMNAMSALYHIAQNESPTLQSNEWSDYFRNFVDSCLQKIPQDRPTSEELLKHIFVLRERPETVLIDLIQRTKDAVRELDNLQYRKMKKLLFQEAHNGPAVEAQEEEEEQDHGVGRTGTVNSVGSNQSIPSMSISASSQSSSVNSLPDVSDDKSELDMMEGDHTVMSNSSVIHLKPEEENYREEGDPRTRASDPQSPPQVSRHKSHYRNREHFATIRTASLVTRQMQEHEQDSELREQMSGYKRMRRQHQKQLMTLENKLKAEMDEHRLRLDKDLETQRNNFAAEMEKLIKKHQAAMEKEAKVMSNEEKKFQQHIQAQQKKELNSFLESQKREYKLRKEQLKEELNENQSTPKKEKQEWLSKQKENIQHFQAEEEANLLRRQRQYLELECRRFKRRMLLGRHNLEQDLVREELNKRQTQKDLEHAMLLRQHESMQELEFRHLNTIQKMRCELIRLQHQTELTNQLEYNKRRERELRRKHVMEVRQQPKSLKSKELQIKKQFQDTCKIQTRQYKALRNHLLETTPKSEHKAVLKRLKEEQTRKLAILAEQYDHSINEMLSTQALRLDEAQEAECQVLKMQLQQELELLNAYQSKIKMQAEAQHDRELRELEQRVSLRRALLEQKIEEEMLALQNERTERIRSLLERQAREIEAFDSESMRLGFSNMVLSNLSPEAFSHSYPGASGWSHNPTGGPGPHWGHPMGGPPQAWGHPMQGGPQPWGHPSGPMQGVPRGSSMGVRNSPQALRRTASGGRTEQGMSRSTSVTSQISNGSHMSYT

[8] = biological target: Activated CDC42 kinase 1 (Homo sapiens) (UniProt Q07912)
[9] = biological target: Rho-associated protein kinase 2 (Homo sapiens) (UniProt O75116)
[10] = biological target: Serine/threonine-protein kinase PLK3 (Homo sapiens) (UniProt Q9H4B4)

Measured: residual activity

Sequence of High affinity nerve growth factor receptor (Homo sapiens) (P04629 33-796 limits assumed): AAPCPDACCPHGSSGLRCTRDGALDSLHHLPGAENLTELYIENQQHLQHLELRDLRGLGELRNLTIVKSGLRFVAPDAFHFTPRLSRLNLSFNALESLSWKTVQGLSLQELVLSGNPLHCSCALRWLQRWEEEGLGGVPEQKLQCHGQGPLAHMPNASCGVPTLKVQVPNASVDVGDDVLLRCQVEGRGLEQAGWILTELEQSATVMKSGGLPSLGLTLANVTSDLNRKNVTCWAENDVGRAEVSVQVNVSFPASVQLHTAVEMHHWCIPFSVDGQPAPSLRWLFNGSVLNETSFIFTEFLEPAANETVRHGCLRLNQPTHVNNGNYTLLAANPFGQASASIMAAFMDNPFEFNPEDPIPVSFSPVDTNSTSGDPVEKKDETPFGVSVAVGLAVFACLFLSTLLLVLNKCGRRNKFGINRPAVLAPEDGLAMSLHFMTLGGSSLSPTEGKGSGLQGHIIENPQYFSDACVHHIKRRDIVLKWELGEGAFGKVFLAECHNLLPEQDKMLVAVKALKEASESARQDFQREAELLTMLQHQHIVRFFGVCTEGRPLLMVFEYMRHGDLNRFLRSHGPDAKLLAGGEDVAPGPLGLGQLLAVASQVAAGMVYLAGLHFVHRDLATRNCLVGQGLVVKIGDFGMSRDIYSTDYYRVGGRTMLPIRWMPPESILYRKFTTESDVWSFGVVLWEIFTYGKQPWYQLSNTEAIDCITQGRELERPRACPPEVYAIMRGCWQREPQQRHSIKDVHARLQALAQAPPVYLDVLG
Sequence of Rho-associated protein kinase 2 (Homo sapiens) (O75116 whole entry, looked up): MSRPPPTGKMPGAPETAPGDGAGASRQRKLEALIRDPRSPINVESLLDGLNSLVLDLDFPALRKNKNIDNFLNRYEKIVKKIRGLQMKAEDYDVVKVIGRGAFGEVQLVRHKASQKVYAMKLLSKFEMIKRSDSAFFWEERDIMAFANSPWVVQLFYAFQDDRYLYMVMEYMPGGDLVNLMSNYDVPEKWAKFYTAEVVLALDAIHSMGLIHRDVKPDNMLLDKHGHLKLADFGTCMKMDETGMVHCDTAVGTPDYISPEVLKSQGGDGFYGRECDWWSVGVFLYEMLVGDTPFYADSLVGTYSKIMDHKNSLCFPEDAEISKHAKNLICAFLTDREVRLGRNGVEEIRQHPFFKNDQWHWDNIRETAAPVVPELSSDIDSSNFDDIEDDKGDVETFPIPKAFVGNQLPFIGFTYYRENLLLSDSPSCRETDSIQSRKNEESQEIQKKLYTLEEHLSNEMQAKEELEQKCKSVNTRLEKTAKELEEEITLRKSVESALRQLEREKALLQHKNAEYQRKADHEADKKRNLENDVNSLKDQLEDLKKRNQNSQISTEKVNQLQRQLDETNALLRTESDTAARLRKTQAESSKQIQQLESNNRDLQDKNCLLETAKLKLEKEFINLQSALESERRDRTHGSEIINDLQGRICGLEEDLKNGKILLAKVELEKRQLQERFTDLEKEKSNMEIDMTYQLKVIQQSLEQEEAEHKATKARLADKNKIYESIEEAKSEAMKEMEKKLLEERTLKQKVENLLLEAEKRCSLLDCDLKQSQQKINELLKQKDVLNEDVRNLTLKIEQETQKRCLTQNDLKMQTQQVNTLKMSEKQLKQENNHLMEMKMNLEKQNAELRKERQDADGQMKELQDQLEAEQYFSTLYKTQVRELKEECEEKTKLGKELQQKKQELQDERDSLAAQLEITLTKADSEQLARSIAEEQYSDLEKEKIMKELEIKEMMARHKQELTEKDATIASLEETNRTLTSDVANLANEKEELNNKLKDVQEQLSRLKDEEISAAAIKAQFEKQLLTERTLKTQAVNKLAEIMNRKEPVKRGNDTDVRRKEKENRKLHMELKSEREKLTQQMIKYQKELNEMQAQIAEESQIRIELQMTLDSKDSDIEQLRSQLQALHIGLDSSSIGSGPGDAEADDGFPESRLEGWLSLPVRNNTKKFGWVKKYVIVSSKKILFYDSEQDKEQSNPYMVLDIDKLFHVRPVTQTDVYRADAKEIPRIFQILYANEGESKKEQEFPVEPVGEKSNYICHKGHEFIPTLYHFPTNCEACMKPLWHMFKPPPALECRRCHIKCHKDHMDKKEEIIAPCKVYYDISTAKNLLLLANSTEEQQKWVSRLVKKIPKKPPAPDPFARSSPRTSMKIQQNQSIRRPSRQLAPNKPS
Sequence of Activated CDC42 kinase 1 (Homo sapiens) (Q07912 whole entry, looked up): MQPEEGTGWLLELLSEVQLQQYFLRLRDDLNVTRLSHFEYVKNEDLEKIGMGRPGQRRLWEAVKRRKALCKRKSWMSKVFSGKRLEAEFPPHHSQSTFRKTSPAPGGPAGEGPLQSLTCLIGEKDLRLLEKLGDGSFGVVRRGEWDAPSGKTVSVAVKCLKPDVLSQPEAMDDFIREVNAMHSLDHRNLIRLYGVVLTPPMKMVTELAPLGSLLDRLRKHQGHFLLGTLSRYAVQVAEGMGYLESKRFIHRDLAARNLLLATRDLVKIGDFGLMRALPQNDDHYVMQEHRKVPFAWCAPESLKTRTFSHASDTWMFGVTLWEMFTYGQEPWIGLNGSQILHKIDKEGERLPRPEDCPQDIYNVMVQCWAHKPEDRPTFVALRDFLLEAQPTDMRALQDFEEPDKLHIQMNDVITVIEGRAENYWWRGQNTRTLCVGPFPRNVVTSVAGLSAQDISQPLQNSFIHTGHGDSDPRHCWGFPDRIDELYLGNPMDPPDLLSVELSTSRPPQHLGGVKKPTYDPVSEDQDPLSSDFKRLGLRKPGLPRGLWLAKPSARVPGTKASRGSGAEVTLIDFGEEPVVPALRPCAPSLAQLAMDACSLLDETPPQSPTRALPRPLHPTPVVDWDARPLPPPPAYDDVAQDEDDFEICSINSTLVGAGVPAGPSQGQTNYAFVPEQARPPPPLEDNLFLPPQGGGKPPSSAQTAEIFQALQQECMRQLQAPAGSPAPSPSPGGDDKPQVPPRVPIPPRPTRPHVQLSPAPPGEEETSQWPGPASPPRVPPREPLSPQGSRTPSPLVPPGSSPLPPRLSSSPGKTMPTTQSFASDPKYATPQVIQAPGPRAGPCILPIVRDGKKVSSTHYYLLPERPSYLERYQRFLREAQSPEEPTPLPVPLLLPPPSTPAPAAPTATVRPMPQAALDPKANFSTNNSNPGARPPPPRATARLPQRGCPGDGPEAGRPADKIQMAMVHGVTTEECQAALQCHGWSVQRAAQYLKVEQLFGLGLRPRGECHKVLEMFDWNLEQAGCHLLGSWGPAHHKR
Sequence of Serine/threonine-protein kinase/endoribonuclease IRE1 (Homo sapiens) (O75460 19-977 limits assumed): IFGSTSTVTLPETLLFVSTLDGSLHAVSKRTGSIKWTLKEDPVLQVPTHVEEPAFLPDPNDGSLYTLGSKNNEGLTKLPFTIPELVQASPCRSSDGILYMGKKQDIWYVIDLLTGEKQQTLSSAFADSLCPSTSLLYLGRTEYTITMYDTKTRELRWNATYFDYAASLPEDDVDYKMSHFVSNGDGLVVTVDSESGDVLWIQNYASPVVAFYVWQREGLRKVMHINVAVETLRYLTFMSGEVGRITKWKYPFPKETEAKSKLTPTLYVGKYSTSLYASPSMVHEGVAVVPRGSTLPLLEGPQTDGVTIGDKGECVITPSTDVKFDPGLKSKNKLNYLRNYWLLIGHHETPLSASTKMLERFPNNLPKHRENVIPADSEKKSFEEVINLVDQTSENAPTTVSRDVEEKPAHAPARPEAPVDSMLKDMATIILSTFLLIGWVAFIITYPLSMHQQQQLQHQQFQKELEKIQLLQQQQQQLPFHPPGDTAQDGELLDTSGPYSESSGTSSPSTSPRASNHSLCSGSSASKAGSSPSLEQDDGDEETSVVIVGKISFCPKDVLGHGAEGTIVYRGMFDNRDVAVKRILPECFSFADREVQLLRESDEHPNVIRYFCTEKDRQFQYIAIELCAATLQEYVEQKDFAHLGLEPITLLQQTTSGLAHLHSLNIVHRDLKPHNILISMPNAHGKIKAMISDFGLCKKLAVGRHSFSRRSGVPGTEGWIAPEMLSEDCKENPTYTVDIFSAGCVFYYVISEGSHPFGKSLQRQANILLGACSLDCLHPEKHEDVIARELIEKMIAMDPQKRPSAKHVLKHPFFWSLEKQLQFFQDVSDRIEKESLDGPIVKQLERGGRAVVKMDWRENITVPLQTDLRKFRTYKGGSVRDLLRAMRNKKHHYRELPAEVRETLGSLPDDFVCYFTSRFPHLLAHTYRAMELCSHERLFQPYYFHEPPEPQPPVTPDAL
Sequence of Serine/threonine-protein kinase PLK3 (Homo sapiens) (Q9H4B4 whole entry, looked up): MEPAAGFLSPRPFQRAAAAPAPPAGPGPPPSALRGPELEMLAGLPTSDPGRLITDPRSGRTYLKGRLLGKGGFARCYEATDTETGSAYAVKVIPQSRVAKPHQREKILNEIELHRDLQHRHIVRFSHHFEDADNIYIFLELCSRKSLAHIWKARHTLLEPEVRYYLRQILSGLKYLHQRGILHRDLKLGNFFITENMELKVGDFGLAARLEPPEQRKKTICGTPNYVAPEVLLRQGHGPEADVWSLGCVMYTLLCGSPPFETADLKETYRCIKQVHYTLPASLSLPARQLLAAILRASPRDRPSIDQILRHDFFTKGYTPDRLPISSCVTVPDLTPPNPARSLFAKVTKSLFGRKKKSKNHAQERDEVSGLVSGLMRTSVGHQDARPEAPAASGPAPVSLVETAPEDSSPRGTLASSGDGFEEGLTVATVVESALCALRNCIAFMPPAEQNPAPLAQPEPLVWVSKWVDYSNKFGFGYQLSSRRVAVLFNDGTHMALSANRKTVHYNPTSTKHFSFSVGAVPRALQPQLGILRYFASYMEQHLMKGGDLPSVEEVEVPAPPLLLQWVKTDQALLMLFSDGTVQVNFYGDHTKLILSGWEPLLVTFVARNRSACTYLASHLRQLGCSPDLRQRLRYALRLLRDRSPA

Cc1nc(C2CCN(C(=O)c3ccc(OC(F)(F)F)cc3N)CC2)c2ncc(N3CCN(C)CC3)cc2n1 [BAY-693]
inactive: [1] 95% | [2] 100% | [3] 100% | [4] 77% | [5] 85% | [6] 99% | [7] 100% | [8] 100% | [9] 91% | [10] 100%

CN1CCN(c2cnc3c(C4CCN(C(=O)c5ccc(OC(F)(F)F)cc5N)CC4)ncnc3c2)CC1 [BAY-885]
inactive: [1] 94% | [2] 99% | [3] 100% | [4] 83% | [5] 100% | [6] 90% | [7] 100% | [8] 100% | [9] 100% | [10] 100%
